In assay [1] the test system is PANC-1. The assay can be described thus: Cytotoxicity against human PANC-1 cells incubated for 48 hrs by MTT assay. The format is functional, cell-based. The following applies: PANC-1, 48 h.
The subject of assay [2] is ASPC1. The assay can be described thus: Cytotoxicity against human ASPC1 cells incubated for 48 hrs by MTT assay. The format is functional, cell-based. The conditions noted are these: ASPC1, 48 h. For orientation: Tetrazolium dyes change colour on reduction, which living cells bring about.
For assay [3], the system named is PANC-1. The assay can be described thus: Induction of apoptosis in human PANC-1 cells co-cultured with human pancreatic stellate cells assessed as decrease in caspase-3/7 activity by measuring reduction in cell number at 1 to 10 uM incubated for 48 hrs by Glo-max luminescence assay. The format is functional, cell-based. The conditions noted are these: dose 1-10 µM.

In assay [4] the test system is BXPC-3. The assay can be described thus: Cytotoxicity against human BXPC-3 cells incubated for 48 hrs by MTT assay. The format is functional, cell-based. The conditions noted are these: BXPC-3, 48 h.
Assay [5] relates to PANC-1. The assay can be described thus: Induction of cell cycle arrest in human PANC-1 cells assessed as accumulation of cells at G1 phase at IC50 measured after 72 hrs by propidium iodide/RNase 141 staining based flow cytometry. The format is functional. (Flow cytometry measures light scatter and fluorescence of single cells or particles in a stream.)
In assay [6] the test system is PANC-1. Put plainly: Cytotoxicity against human PANC-1 cells cultured as 3D spheroids assessed as inhibition of spheroid growth rate at 10 uM measured every two days by microscopic analysis. The format is functional, cell-based.
For assay [7], the system named is PANC-1. The assay can be described thus: Cytotoxicity against human PANC-1 cells co-cultured with human pancreatic stellate cells incubated for 48 hrs by Cell-titer glo luminescence assay. The format is functional, cell-based. The conditions noted are these: PANC-1, 48 h.
Assay [8] concerns PANC-1. Put plainly: Induction of apoptosis in human PANC-1 cells cultured as 3D spheroids assessed as fold increase in caspase-3/7 activity at 0.1 uM incubated for 48 hrs by Glo-max luminescence assay. The format is functional.
The subject of assay [9] is PANC-1. The assay can be described thus: Cytotoxicity against human PANC-1 cells co-cultured with human pancreatic stellate cells incubated for 48 hrs by MTT assay. The format is functional, cell-based.
Assay [10] relates to PANC-1. Put plainly: Induction of apoptosis in human PANC-1 cells cultured as 3D spheroids assessed as decrease in caspase-3/7 activity by measuring reduction in cell number at 1 to 10 uM incubated for 48 hrs by Glo-max luminescence assay. The format is functional, cell-based. The following applies: dose 1-10 µM.
Assay [11] deals with PANC-1. The assay can be described thus: Cytotoxicity against human PANC-1 cells co-cultured with human pancreatic stellate cells assessed as inhibition of spheroid growth rate at 10 uM measured every two days by microscopic analysis. The format is functional, cell-based.
Assay [12] relates to PANC-1. The assay can be described thus: Cytotoxicity against human PANC-1 cells cultured as 3D spheroids incubated for 48 hrs by Cell-titer glo luminescence assay. The format is functional, cell-based. The following applies: PANC-1, 48 h.
For assay [13], the system named is PANC-1. Put plainly: Induction of apoptosis in human PANC-1 cells co-cultured with human pancreatic stellate cells assessed as fold increase in caspase-3/7 activity at 0.1 uM incubated for 48 hrs by Glo-max luminescence assay. The format is functional.
Assay [14] has as its system PANC-1. The assay can be described thus: Induction of apoptosis in human PANC-1 cells co-cultured with human pancreatic stellate cells assessed as increase in caspase-3/7 activity upto 50 uM incubated for 48 hrs by Glo-max luminescence assay relative to control. The format is functional. The conditions noted are these: up to 50 µM.
In assay [15] the test system is PANC-1. Put plainly: Cytotoxicity against human PANC-1 cells co-cultured with human pancreatic stellate cells assessed as reduction in spheroid growth rate at 0.1 to 100 uM measured every two days by microscopic analysis. The format is functional, cell-based. The following applies: dose 0.1-100 µM.
Assay [16] concerns PANC-1. Put plainly: Induction of apoptosis in human PANC-1 cells cultured as 3D spheroids assessed as increase in caspase-3/7 activity upto 50 uM incubated for 48 hrs by Glo-max luminescence assay relative to control. The format is functional. The conditions noted are these: up to 50 µM.
Assay [17] concerns PANC-1. Put plainly: Cytotoxicity against human PANC-1 cells cultured as 3D spheroids assessed as reduction in spheroid growth rate at 0.1 to 100 uM measured every two days by microscopic analysis. The format is functional, cell-based. The conditions noted are these: dose 0.1-100 µM.
Assay [18] relates to PANC-1. The assay can be described thus: Induction of cell cycle arrest in human PANC-1 cells assessed as accumulation of cells at G2 phase at IC50 measured after 72 hrs by propidium iodide/RNase 141 staining based flow cytometry. The format is functional.

Molecules are shown by their SMILES. Calls of active or inactive are those of the source. The calls are words filed in the database; no cut-off is given here. Where only a bound is given, the exact number is not on record here.

With `Cc1ccc(/C=C/C(=O)[C@](C)(O)C2CC[C@H]3[C@@H]4CCc5cc(O)ccc5[C@H]4CC[C@]23C)s1` (some centres undefined), the 50% inhibitory concentration (IC50) (as a rule, the point on the concentration scale where inhibition reaches its midpoint) in [1] was more than 50 µM; in assay [2] it was 46.5 µM.

In the case of `Cc1ccc(/C=C/C(=O)[C@](C)(O)C2CC[C@H]3[C@@H]4CCc5cc(OS(N)(=O)=O)ccc5[C@H]4CC[C@]23C)s1` (some centres undefined), the values for the concentration for half-maximal inhibition (IC50) in assay [1] and in assay [2] were more than 50 µM and 38.4 µM, respectively.

For `COc1ccc2c(c1)CC[C@@H]1[C@@H]2CC[C@]2(C)C([C@@](C)(O)C(=O)/C=C/c3cccs3)CC[C@@H]12` (some centres undefined), the IC50 in [1] is 38.2 µM; in [2], more than 50 µM.

Turning to `C[C@](O)(C(=O)/C=C/c1ccc(Cl)s1)C1CC[C@H]2[C@@H]3CCc4cc(OS(N)(=O)=O)ccc4[C@H]3CC[C@]12C` (some centres undefined), the IC50 in assay [1] and in assay [2] was more than 50 µM each time.

In the case of `COc1ccc2c(c1)CC[C@@H]1[C@@H]2C(=O)C[C@]2(C)C([C@@](C)(O)C(=O)/C=C/c3ccc(C(F)(F)F)cc3)CC[C@@H]12` (some centres undefined), the IC50 in assay [1] came to 5.28 µM; in [4], 5.7 µM; in [7], 24.3 µM; in [2] it was 4.17 µM; in assay [12], 21 µM. Besides, the outcome in assay [3], in assay [5], in assay [6], in assay [9], in [10] and in assay [11] was Active. The “fold change (FC)” value in assay [8] and in assay [13] was 1.5 each time.

Take `Nc1ccn([C@@H]2O[C@H](CO)[C@@H](O)C2(F)F)c(=O)n1` [GEMCITABINE]: the IC50 in assay [1], in assay [4] and in assay [2] was more than 50 µM throughout. Besides, the Activity in assay [14] and in [16] was 20% throughout. For the same compound, the result in assay [15] and in assay [17] was Active.

Regarding `C[C@](O)(C(=O)/C=C/c1cccs1)C1CC[C@H]2[C@@H]3CCc4cc(O)ccc4[C@H]3CC[C@]12C` (some centres undefined), the IC50 in assay [1] is 41.7 µM; in [2] it was more than 50 µM.

As to `COc1ccc2c(c1)CC[C@@H]1[C@@H]2[C@H](O)C[C@]2(C)C([C@@](C)(O)C(=O)/C=C/C(C)(C)O)CC[C@@H]12` (some centres undefined), the half-inhibitory concentration (IC50) came out at 11.8 µM in [1]; 10.1 µM in [4]; 39.5 µM in assay [7]; 17.3 µM in [2]; 37.5 µM in assay [12]. In addition, the result in assay [3], in assay [9], in [10] and in assay [18] was Active. The “fold change (FC)” value in assay [8] and in assay [13] was 1.5 throughout.

For the compound `COc1ccc2c(c1)CC[C@@H]1[C@@H]2[C@H](O)C[C@]2(C)C([C@@](C)(O)C(=O)/C=C/c3ccc(C(F)(F)F)cc3)CC[C@@H]12` (some centres undefined), the IC50 in [1] was 6.52 µM; in assay [4], 6.07 µM; in assay [7], more than 50 µM; in assay [2], 11.5 µM; in assay [12], 37.5 µM. In addition, the result in assay [3], in assay [9], in [10] and in assay [18] was Active. For the same compound, the “fold change (FC)” value in [8] and in assay [13] was 1.5 each time.

On to `C[C@](O)(C(=O)/C=C/c1ccc(Cl)s1)C1CC[C@H]2[C@@H]3CCc4cc(O)ccc4[C@H]3CC[C@]12C` (some centres undefined), for which the IC50 was 39.8 µM in [1] and more than 50 µM in assay [2].

In the case of `C[C@](O)(C(=O)/C=C/c1cccs1)C1CC[C@H]2[C@@H]3CCc4cc(OS(N)(=O)=O)ccc4[C@H]3CC[C@]12C` (some centres undefined), the IC50 in assay [1] was found to be 53 µM; in [2], 48.4 µM.

In the case of `COc1ccc2c(c1)CC[C@@H]1[C@@H]2CC[C@]2(C)C([C@@](C)(O)C(=O)/C=C/c3ccc(Cl)s3)CC[C@@H]12` (some centres undefined), the results for the IC50 in [1] and in [2] were 33.4 µM and more than 50 µM, respectively.

Consider `COc1ccc2c(c1)CC[C@@H]1[C@@H]2CC[C@]2(C)C([C@@](C)(O)C(=O)/C=C/c3ccc(Cl)o3)CC[C@@H]12` (some centres undefined), for which the IC50 in [1] was more than 50 µM; in assay [2], 40.2 µM.

Take `COc1ccc2c(c1)CC[C@@H]1[C@@H]2CC[C@]2(C)C([C@@](C)(O)C(=O)/C=C/c3ccc(C)s3)CC[C@@H]12` (some centres undefined): the concentration for half-maximal inhibition (IC50) in [1] and in assay [2] was more than 50 µM each time.

For the compound `C[C@](O)(C(=O)/C=C/c1ccc(Cl)o1)C1CC[C@H]2[C@@H]3CCc4cc(O)ccc4[C@H]3CC[C@]12C` (some centres undefined), the half-inhibitory concentration (IC50) in assay [1] was 10.2 µM; in assay [2] it was more than 50 µM.

(Values after ChEMBL document CHEMBL5550099, “Synthesis and biological activity of 11-Oxygenated and heterocyclic estrone analogs in pancreatic cancer monolayers and 3D spheroids” (Bioorg Med Chem, 2024).)
